In turn, `*c1c(C)c(C)c(N2C(=O)c3ccc(Oc4cc(C)ccc4Oc4ccc5c(c4)C(=O)N(*)C5=O)cc3C2=O)c(C)c1C` (repeat unit) showed a CH4 permeability of 0.47 Barrer, a CO2 permeability of 20 Barrer, an H2 permeability of 41 Barrer and an N2 permeability of 0.59 Barrer. This molecule came in with an O2 permeability of 3.5 Barrer.
With `*c1ccc(Oc2ccc(C(c3ccc(Oc4ccc(N5C(=O)c6ccc(-c7ccc8c(c7)C(=O)N(*)C8=O)cc6C5=O)cc4C(F)(F)F)cc3)(C(F)(F)F)C(F)(F)F)cc2)c(C(F)(F)F)c1` (repeat unit), the CH4 permeability is 0.279 Barrer, the CO2 permeability stood at 9.15 Barrer, the H2 permeability was 30.6 Barrer and the N2 permeability is 0.563 Barrer. The molecule further registered an O2 permeability of 3.11 Barrer.
For `*c1ccc(Oc2ccc(C(c3ccc(Oc4ccc(N5C(=O)c6ccc(C(c7ccc8c(c7)C(=O)N(*)C8=O)(C(F)(F)F)C(F)(F)F)cc6C5=O)cc4)cc3)(C(F)(F)F)C(F)(F)F)cc2)cc1` (repeat unit), the CH4 permeability is 0.515 Barrer, the CO2 permeability turned out to be 19 Barrer, the H2 permeability was 46.7 Barrer and the N2 permeability is 0.982 Barrer. In addition, the O2 permeability amounted to 5.27 Barrer.
With `*Oc1cc2c(cc1O*)C1(c3cc(C)ccc3-2)c2cc(C)ccc2-c2cc3c(cc21)Oc1c(C#N)c(*)c(*)c(C#N)c1O3` (repeat unit), the CH4 permeability amounted to 582 Barrer, the CO2 permeability came to 8500 Barrer, the H2 permeability is 4430 Barrer and the N2 permeability is 380 Barrer. Further, the O2 permeability is 1510 Barrer.
For `*c1ccc(C(C)(C)c2ccc(-n3c(=O)c4cc5c(=O)n(*)c(=O)c5cc4c3=O)cc2)cc1` (repeat unit) the same measures were 0.901 Barrer, 26.9 Barrer, 17 Barrer, 1.5 Barrer and 7.1 Barrer.
For `*C(=C(*)c1ccc2c(c1)C(C)(C)CC2(C)C)c1cc(F)cc(F)c1` (repeat unit) the same measures were 29100 Barrer, 36100 Barrer, 28500 Barrer, 13100 Barrer and 15200 Barrer.
`*C(C(=O)OC(C)CC(C)C)C(*)C(=O)OC(C)(C)C` (repeat unit) came in with an H2 permeability of 169 Barrer, an N2 permeability of 16 Barrer and an O2 permeability of 49 Barrer.
`*C(=C(*)c1ccc(-c2ccc(C(C)(C)C)cc2)cc1)c1ccccc1` (repeat unit) gave a CH4 permeability of 190 Barrer, a CO2 permeability of 1220 Barrer, an H2 permeability of 455 Barrer and an N2 permeability of 70.5 Barrer. For the same molecule, the O2 permeability was 195 Barrer.
Molecule `*c1cc(CCCCCCCCCCCC)c(*)s1` (repeat unit) returned a CO2 permeability of 88.2 Barrer, an N2 permeability of 9.4 Barrer and an O2 permeability of 20.2 Barrer.
The molecule `*c1c(C)c(C(=O)O)c(C)c(N2C(=O)c3ccc(C(c4ccc5c(c4)C(=O)N(*)C5=O)(C(F)(F)F)C(F)(F)F)cc3C2=O)c1C` (repeat unit) yielded a CH4 permeability of 3.2 Barrer, a CO2 permeability of 144 Barrer, an H2 permeability of 193 Barrer and an N2 permeability of 5.52 Barrer. This molecule also gave an O2 permeability of 26.4 Barrer.
Consider `*c1ccc(Oc2cccc(-n3c(=O)c4cc5c(=O)n(*)c(=O)c5cc4c3=O)c2)cc1` (repeat unit), for which the CH4 permeability was determined as 0.0258 Barrer, the CO2 permeability is 1.15 Barrer, the H2 permeability was 5.92 Barrer and the N2 permeability was 0.0454 Barrer. The molecule further showed an O2 permeability of 0.31 Barrer.
On to `*Oc1ccc(S(=O)(=O)c2ccc(Oc3ccc(Oc4ccc(*)cc4)cc3)cc2)cc1` (repeat unit), for which the CH4 permeability is 0.179 Barrer, the CO2 permeability was 4.3 Barrer, the N2 permeability was determined as 0.196 Barrer and the O2 permeability came to 1.1 Barrer.
In the case of `*c1ccc2c(c1)-c1nc3ccc(-c4ccc5c(c4)nc4n5C(=O)c5cc(C(c6ccc7c(c6)C(=O)N(c6cc(C(c8ccc(O)c(N9C(=O)c%10ccc(C(*)(C(F)(F)F)C(F)(F)F)cc%10C9=O)c8)(C(F)(F)F)C(F)(F)F)ccc6O)C7=O)(C(F)(F)F)C(F)(F)F)ccc5-4)cc3n1C2=O` (repeat unit), the CO2 permeability is 15 Barrer, the N2 permeability is 0.53 Barrer and the O2 permeability is 3.2 Barrer.
Molecule `*CC(*)c1ccncc1` (repeat unit) returned a CH4 permeability of 0.14 Barrer, a CO2 permeability of 3.31 Barrer, an H2 permeability of 12.6 Barrer and an N2 permeability of 0.13 Barrer. The molecule also had an O2 permeability of 0.84 Barrer.
For `*Oc1ccc(S(=O)(=O)c2ccc(Oc3c(C)cc(C(c4cc(C)c(*)c(C)c4)(C(F)(F)F)C(F)(F)F)cc3C)cc2)cc1` (repeat unit), in that order: 1.61 Barrer, 72 Barrer, 70.7 Barrer, 4 Barrer and 18 Barrer.
Molecule `*C(=O)c1ccc([Si](C)(C)c2ccc(C(*)=O)cc2)cc1` (repeat unit) showed a CH4 permeability of 1.39 Barrer, a CO2 permeability of 22.2 Barrer, an H2 permeability of 27.1 Barrer and an N2 permeability of 1.37 Barrer. The molecule further yielded an O2 permeability of 5.54 Barrer.
For `*=CC1CC(C=*)C2C(=O)N(c3ccccc3)C(=O)C12` (repeat unit), the CH4 permeability is 0.54 Barrer, the CO2 permeability is 11.4 Barrer, the H2 permeability is 11 Barrer and the N2 permeability was 0.31 Barrer. The O2 permeability came out at 1.44 Barrer.
With `*CC=C(C*)[Si](C)(C)OC(C)C` (repeat unit), the CH4 permeability was 3.1 Barrer, the CO2 permeability was determined as 23.2 Barrer, the N2 permeability came out at 1.5 Barrer and the O2 permeability was 6 Barrer.
Molecule `*c1c(C)cc(-c2cc(C)c(N3C(=O)c4ccc(C(=O)Oc5ccc(C(c6ccc(OC(=O)c7ccc8c(c7)C(=O)N(*)C8=O)cc6)(C(F)(F)F)C(F)(F)F)cc5)cc4C3=O)c(C)c2)cc1C` (repeat unit) displayed an H2 permeability of 38 Barrer, an N2 permeability of 0.549 Barrer and an O2 permeability of 3.02 Barrer.
The molecule `*=CC1CC(C=*)C2C(=O)N(C3CCCCC3)C(=O)C12` (repeat unit) displayed a CH4 permeability of 0.8 Barrer, a CO2 permeability of 13.7 Barrer, an H2 permeability of 16.1 Barrer and an N2 permeability of 0.52 Barrer. Also, the O2 permeability is 2.21 Barrer.
Turning to `*Oc1ccc(C(c2ccc(Oc3ccc(C(=O)c4ccc(C(c5ccc(C(=O)c6ccc(*)cc6)cc5)(C(F)(F)F)C(F)(F)F)cc4)cc3)cc2)(C(F)(F)F)C(F)(F)F)cc1` (repeat unit), the CH4 permeability stood at 0.477 Barrer, the CO2 permeability is 11.5 Barrer, the H2 permeability was 31.4 Barrer and the N2 permeability amounted to 0.76 Barrer. For the same molecule, the O2 permeability stood at 3.7 Barrer.
`*Oc1ccc(C(C)(C)c2ccc(OC(=O)c3cccc(C(=O)Oc4cc(-c5cc(*)cc6ccccc56)c5ccccc5c4)c3)cc2)cc1` (repeat unit) registered a CH4 permeability of 0.148 Barrer, a CO2 permeability of 4 Barrer, an N2 permeability of 0.139 Barrer and an O2 permeability of 0.93 Barrer.
On to `*Oc1ccc(C(C)(C)c2ccc(OC(=O)c3cccc(C(*)=O)c3)c(C)c2)cc1C` (repeat unit), for which the CH4 permeability was 0.0459 Barrer, the CO2 permeability is 1.24 Barrer, the H2 permeability is 7.79 Barrer and the N2 permeability was 0.0628 Barrer. This molecule displayed an O2 permeability of 0.4 Barrer.
In the case of `*c1c(C)c(C)c(N2C(=O)c3ccc(Oc4cc(C(C)(C)C)cc(C)c4Oc4ccc5c(c4)C(=O)N(*)C5=O)cc3C2=O)c(C)c1C` (repeat unit), the CH4 permeability came out at 2.2 Barrer, the CO2 permeability worked out at 67 Barrer, the H2 permeability amounted to 110 Barrer and the N2 permeability is 2.5 Barrer. The same molecule displayed an O2 permeability of 13 Barrer.
Regarding `*CC(*)CC(C)C` (repeat unit), the CO2 permeability came to 92.6 Barrer and the O2 permeability came out at 32.3 Barrer.
As for `*c1ccc(N2C(=O)c3ccc(C(=O)Oc4ccc(C(c5ccc(OC(=O)c6ccc7c(c6)C(=O)N(*)C7=O)cc5)(C(F)(F)F)C(F)(F)F)cc4)cc3C2=O)cc1` (repeat unit), the H2 permeability worked out at 4.36 Barrer, the N2 permeability was determined as 0.0355 Barrer and the O2 permeability amounted to 0.251 Barrer.
In turn, `*C(C)=C(*)c1ccccc1` (repeat unit) displayed a CH4 permeability of 5.2 Barrer, a CO2 permeability of 174 Barrer, an H2 permeability of 199 Barrer and an N2 permeability of 12.2 Barrer. For the same molecule, the O2 permeability turned out to be 36.8 Barrer.
With `*C(=C(*)c1ccc2c(c1)C(C)(C)c1ccccc1-2)c1ccc(Br)cc1` (repeat unit), the CH4 permeability worked out at 9300 Barrer, the CO2 permeability was determined as 17000 Barrer, the H2 permeability was 8700 Barrer and the N2 permeability was 3500 Barrer. This molecule showed an O2 permeability of 5000 Barrer.
For the molecule `*C(Cl)CCCC(*)S(=O)(=O)Cl` (repeat unit), the H2 permeability was determined as 13.3 Barrer, the N2 permeability was determined as 0.955 Barrer and the O2 permeability came out at 3.29 Barrer.
As to `*Oc1ccc(-c2nn(-c3ccc(S(=O)(=O)c4ccc(*)cc4)cc3)c(=O)c3ccccc23)cc1` (repeat unit), the CO2 permeability was determined as 0.92 Barrer, the H2 permeability was 2.4 Barrer, the N2 permeability stood at 0.027 Barrer and the O2 permeability was 0.15 Barrer.
With `*Oc1ccc(N2C(=O)CCC23CCC(=O)N3c2ccc(Oc3c(F)c(F)c(COC(C4CCCC(C(OCc5c(F)c(F)c(*)c(F)c5F)(C(F)(F)F)C(F)(F)F)C4)(C(F)(F)F)C(F)(F)F)c(F)c3F)cc2)cc1` (repeat unit), the CH4 permeability came out at 0.25 Barrer, the CO2 permeability was determined as 7.1 Barrer, the H2 permeability turned out to be 21 Barrer and the N2 permeability stood at 0.46 Barrer. Moreover, the O2 permeability stood at 2.2 Barrer.
For `*OC1OC(COCC)C(*)C(OCC)C1OCC` (repeat unit) the same measures were 9.2 Barrer, 91 Barrer, 68 Barrer, 4.3 Barrer and 15 Barrer.
For `*C=CCCC*` (repeat unit) the same measures were 430 Barrer, 2000 Barrer, 415 Barrer, 100 Barrer and 310 Barrer.
For the molecule `*CC(*)F` (repeat unit), the CO2 permeability came out at 0.0791 Barrer and the H2 permeability is 0.35 Barrer.

Source of the values: a polymer gas permeability compilation.
